Source: patent US20260217730A1, “PROTEOLYSIS TARGETING CHIMERA COMPOUND” (BEIJING TIDE PHARMACEUTICAL CO., LTD., priority 2023, published 2026)
pIC50: −log10 of the molar value.

Key:
SHP2 = molecular target: T1, SHP2 (Homo sapiens, UniProt Q06124); experiment: Western blot, degradation of SHP2 in vitro; assay type: cell-based; settings: degradation of SHP2 in SUM159 cells, 24 hours with compound
T1 construct: endogenous in cells; host or cells: SUM159 triple-negative breast cancer cells
T1 sequence (Q06124 1-593): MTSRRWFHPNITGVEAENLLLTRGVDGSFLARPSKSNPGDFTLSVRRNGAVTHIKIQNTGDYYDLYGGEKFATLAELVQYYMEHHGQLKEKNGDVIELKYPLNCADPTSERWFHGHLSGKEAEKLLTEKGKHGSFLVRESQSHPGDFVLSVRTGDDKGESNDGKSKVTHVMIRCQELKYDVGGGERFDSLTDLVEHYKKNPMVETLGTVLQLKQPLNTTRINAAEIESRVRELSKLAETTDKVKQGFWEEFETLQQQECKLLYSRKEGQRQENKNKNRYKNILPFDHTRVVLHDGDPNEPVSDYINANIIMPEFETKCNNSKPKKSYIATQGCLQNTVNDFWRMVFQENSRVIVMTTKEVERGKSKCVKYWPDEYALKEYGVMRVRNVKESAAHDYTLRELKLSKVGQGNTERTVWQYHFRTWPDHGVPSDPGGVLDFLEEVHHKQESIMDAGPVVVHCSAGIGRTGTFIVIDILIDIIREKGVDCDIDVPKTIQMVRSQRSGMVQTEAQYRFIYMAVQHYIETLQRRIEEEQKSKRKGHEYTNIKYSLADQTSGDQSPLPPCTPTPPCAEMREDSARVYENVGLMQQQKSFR
Experimental: 1. The Biological Activity of Compounds was Determined by Western Blot Method Using the Following Method:
Reagents: Complete 1640 medium was purchased from Gibco. Fetal bovine serum was purchased from ThermoFisher. Trypsin was produced by ThermoFisher. SHP-2 antibody was produced by CST.
(§1) Cell line: SUM159 triple-negative breast cancer cell line was established by Rovera.
Method for assay: Cells growth in the logarithmic phase were collected and suspended in a 1640 medium containing 10% fetal bovine serum, which was then gently pipetted into a single-cell suspension. Viable cells were counted under microscope. 9 mL of the cell suspension was seeded and cultured in a 10 cm culture dish at a final concentration of 2×10^5 cells/mL. After cells were pre-cultured for 24 hours at 37° C. and 5% CO2, different concentrations of solutions of the compounds of the present disclosure in DMSO were added (the final concentration of DMSO was no more than 0.5%), and the negative control group was added with the same volume of DMSO alone. After cultured for another 24 hours, all cells were collected and washed with PBS. The cells were lysed with RIPA lysis buffer, and the lysates were collected into a 1.7 mL centrifuge tube. The proteins were fully denatured after heating in the metal bath at 95° C. for 10 minutes. After loading the samples onto the gel for Western blotting, electrophoresis was performed at a constant voltage of 100V until the band of bromophenol blue reached the terminal point. The proteins were transferred onto a cellulose acetate membrane using the wet transfer method at a constant current of 300-500 mA for 45 minutes, and the proteins were blocked with 5% BSA at room temperature for 1-2 hours. The proteins were incubated with primary antibody diluted 1:500 to 1:8000 at room temperature for 2 hours, and then washed three times. Subsequently, the proteins were incubated with secondary antibody at room temperature for 1 hour. The detection of proteins was performed using ultrasensitive ECL luminescent liquid such as Enlight, and signals were captured using an automatic X-ray film developing machine. For the test results, see the in vitro Western Blot experiment of Example 1 and the in vitro Western Blot experiment of Example 3.
The compounds of the present disclosure have good in vitro anti-solid tumor and anti-blood tumor activities and have low toxicity to normal cells.

PAMPA experiment = assay type: in vitro ADME; settings: 1.8% lecithin membrane, drug test solution 10 μM, 37° C., 16 hours
Experimental: Reagents: lecithin, n-dodecane, HEPES, dimethyl sulfoxide (DMSO), acetonitrile
Instrument and equipment: Multiscreen 96-well plate (up Merck Millipore), Multiscreen 96-well plate (down Merck Millipore), electronic analytical balance, constant temperature incubator, high performance liquid chromatography-mass spectrometry (LC-MS)
Method for operation: Preparation of PAMPA artificial membrane: about 18 mg of lecithin was weighed accurately, and placed into a 1.5 mL EP tube. 1 mL of n-dodecane was added. The mixture was dissolved by ultrasonication, and then thoroughly mixed to obtain a 1.8% lecithin membrane.
The upper layer of the PAMPA model was the plate lid, the middle layer was the 96-well filter plate (donor plate), and the lower layer was the accepter plate. 5 μL of the above 1.8% lecithin membrane was added to the filter membrane of the donor plate, and then 150 μL of the drug test solution (10 μM) was added. 300 μL of HEPES solution was added to each well of the accepter plate (completed within 10 minutes). The donor plate was slowly placed onto the accepter plate and incubated at 37° C. for 16 hours.
LC-MS detection: 100 μL of the positive control and the test compound was weighed respectively, to which 100 μL of acetonitrile-DMSO solution [acetonitrile-DMSO (4:1)] was added. The mixture was mixed well, and detected by LC-MS at OH and 16H. The corresponding molecular ion peak was extracted and the peak area was obtained; After the PAMPA model was incubated at 37° C. for 16 h, 100 μL of the test solution in the donor plate and the accepter plate was weighed respectively, to which 100 μL of acetonitrile-DMSO solution [acetonitrile-DMSO (4:1)] was added. The mixture was mixed well, and detected by LC-MS. The corresponding molecular ion peak was extracted, the peak area was obtained, and the concentration was calculated.

[1] = test system: SUM159 triple-negative breast cancer cell line; experiment: CCK8 method, cell viability; assay type: cell-based; settings: SUM159 cells, 72 hours, CCK8 absorbance
Experimental: 2. The Biological Activity of Compounds was Determined by CCK8 Method Using the Following Method:
Reagents: Complete RPMI 1640 medium was purchased from Gibco. Fetal bovine serum was purchased from ThermoFisher. Trypsin was produced by ThermoFisher. SHP-2 antibody was produced by CST. CCK8 was produced by abcam.
as §1
Method for assay: Cells growth in the logarithmic phase were collected and suspended in a RPMI 1640 medium containing 10% fetal bovine serum, which was then gently pipetted into a single-cell suspension. Viable cells were counted under microscope. The cells were seeded into a 96-well plate at a density of 3-6*10^3 cells per well and cultured in an incubator for 24 hours. Test compounds were diluted in multiples, and then the cell culture supernatant was added. The cells were cultured for another 72 hours, and 10 μL of CCK8 detection solution was added to each well. After incubating for 1-4 hours, the absorbance was measured using a microplate reader.

For O=C1CC(=O)OCN2C(=O)CCC(C2=O)N2Cc3cc(ccc3C2=O)OCCOC/C=C\COCCOc2ccc(c(Cl)c2)-c2cc(=O)c3cc(I)c(cc3o2)CO1 (centres unmarked) [Example 1], the DC50 (SHP2) was 210 nM, the “PAMPA (−Log Pe)” value (PAMPA experiment) was 6.71 and the pIC50 [1] was 7.54.
With O=C1CCC2C(=O)N1COP(=O)(O)OCc1cc3oc(cc(=O)c3cc1I)-c1ccc(cc1Cl)OCCOC/C=C\COCCOc1ccc3c(c1)C(=O)N2C3=O (centres unmarked) [Example 2] the “PAMPA (−Log Pe)” value (PAMPA experiment) was 6.0 and the pIC50 [1] was 6.00.
In the case of CN1CC(=O)OCc2ccc3c(=O)cc(oc3c2)-c2ccc(cc2Cl)OCCOC/C=C/COCCOc2ccc3c(c2)CN(C3=O)C2CCC(=O)N(COC(=O)C1)C2=O (centres unmarked) [Example 9], the DC50 (SHP2) was 4.21 nM, the “PAMPA (−Log Pe)” value (PAMPA experiment) was 5.52 and the pIC50 [1] was 8.62.
In the case of O=C1CC(=O)OCN2C(=O)CCC(C2=O)N2Cc3cc(ccc3C2=O)OCCCC/C=C\CCCCOc2ccc(c(Cl)c2)-c2cc(=O)c3ccc(cc3o2)CO1 (centres unmarked) [Example 4], the “PAMPA (−Log Pe)” value (PAMPA experiment) was 6.11 and the pIC50 [1] was 6.14.
With N[C@H]1CCC(=O)OCc2ccc3c(=O)cc(oc3c2)-c2ccc(cc2Cl)OCCOC/C=C/COCCOc2ccc3c(c2)CN(C3=O)C2CCC(=O)N(COC1=O)C2=O (some centres unmarked) [Example 8] the “PAMPA (−Log Pe)” value (PAMPA experiment) was 4.68 and the pIC50 [1] was 8.27.
With O=C1OCc2cc3oc(cc(=O)c3cc2I)-c2ccc(cc2Cl)OCCOC/C=C\COCCOc2ccc3c(c2)CN(C3=O)C2CCC(=O)N(COC1=O)C2=O (centres unmarked) [Example 3] the DC50 (SHP2) was 37 nM, the “PAMPA (−Log Pe)” value (PAMPA experiment) was 5.94 and the pIC50 [1] was 8.13.
With CN1CC(=O)OCc2ccc3c(=O)cc(oc3c2)-c2ccc(cc2Cl)OCCOCCCCOCCOc2ccc3c(c2)CN(C3=O)C2CCC(=O)N(COC(=O)C1)C2=O (centres unmarked) [Example 10] the DC50 (SHP2) was 5.94 nM, the “PAMPA (−Log Pe)” value (PAMPA experiment) was 5.56 and the pIC50 [1] was 8.46.
With O=C1OCc2ccc3c(=O)cc(oc3c2)-c2ccc(cc2Cl)OCCCC/C=C/CCCCOc2ccc3c(c2)CN(C3=O)C2CCC(=O)N(COC(=O)c3cccc1c3)C2=O (centres unmarked) [Example 6] the DC50 (SHP2) was 10 nM, the “PAMPA (−Log Pe)” value (PAMPA experiment) was 8.55 and the pIC50 [1] was under 5.30.
O=C1CC(=O)OCN2C(=O)CCC(C2=O)N2Cc3cc(ccc3C2=O)OCCOC/C=C\COCCOc2ccc(c(Cl)c2)-c2cc(=O)c3ccc(cc3o2)CO1 (centres unmarked) [Example 7] gave a DC50 (SHP2) of 188 nM and a pIC50 [1] of 7.64.
In the case of O=C1OCc2cc3oc(cc(=O)c3cc2I)-c2ccc(cc2Cl)OCCOC/C=C\COCCOc2ccc3c(c2)CN(C3=O)C2CCC(=O)N(COC(=O)c3cccc1c3)C2=O (centres unmarked) [Example 5], the DC50 (SHP2) was 500 nM, the “PAMPA (−Log Pe)” value (PAMPA experiment) was 5.78 and the pIC50 [1] was 6.70.
